Residues, ends and D or L forms follow the SMILES beside them.
How the values were obtained:
[1] = In vitro peptide-Lipid A binding on streptavidin beads (LAL test); design: species or system Escherichia coli; settings: biotinylated peptide 0-2.5 µM on streptavidin beads, 200 µg/ml lipid A, triplicates
Description: Several kinds of peptide-LPS or peptide-Lipid A binding assays were performed in this study: 1) Streptavidine-conjugated beads (Dynabeads MyOne Streptavidin T1, Invitrogen) were blocked by P. aeruginosa LPS (Sigma) at 37°C for 1.5 hour. After washing with PBST (PBS, pH 7.4 containing 0.1% (w/v) Tween-20), aliquots containing 250 pmol streptavidine-conjugated beads were incubated with a reaction mixture overnight at 4°C. The reaction mixture was prepared by mixing increasing amounts of biotinylated peptide HBc147-183 (0, 0.004, 0.02, 0.1, 0.5 and 2.5 µM) and 5 µg/ml P. aeruginosa LPS (Sigma) or 200 µg/ml E. coli lipid A (Sigma), at 37°C for 3 hour. After incubation overnight at 4°C, the reduction of LPS (or Lipid A) in the supernatants were measured by the Limulus Amebocyte Lysate (LAL) test (Charles River Endosafe) with an ELISA reader (Molecular Devices). The amount (EU/ml) of LPS was calculated according to the standard curve prepared with Endosafe Control Srandard Endotoxin. […] After trypsinization, the trypsin-released LPS in the supernatants were collected and measured by the Limulus Amebocyte Lysate (LAL) test. […] Plate-bound HBc147-183 was measured by streptavidin conjugated with HRP (1∶10000 dilution) for 1 hour at 37°C. […] The absorption was measured at 450 nm with a reference wavelength at 655 nm.

E. coli = assay: Killing kinetics; format: cell-based, Escherichia coli; settings: 4 µM peptide (1×MBC), 37°C, triplicates
Description: (§1) For measurement of killing kinetics, bacteria and peptides were prepared as described above. Fifty µl of bacteria were mixed with fifty µl of peptides at the concentrations corresponding to MBC and were incubated at 37°C. At the indicated time, bacteria were serially diluted and placed on Mueller-Hinton broth agar plates for the viability measurement.

S. aureus = assay: SYTOX Green uptake (membrane permeabilization); format: cell-based, Staphylococcus aureus; settings: 4 µM peptide; 10^7 CFU, 1 µM SYTOX Green, 37°C
Description: (§2) Briefly, bacteria (10^7 CFU) were prepared and mixed with 1 µM SYTOX Green (Invitrogen) for 15 minutes in the dark. […] Melittin (Sigma), the major toxin of bee venom, was used as a positive control to provide maximal permeabilization.

HEK293 cells = assay: CFSE cell proliferation assay; format: cell-based, human; settings: 5, 25 and 100 µM for 1 hour; flow cytometry
Description: To set up CFSE cell proliferation assay, 293 cells (human kidney origin) and Vero cells (monkey kidney origin) were resuspended in PBS to a final concentration of 10^6 cells/ml, before incubation with 10 µM CFSE dye (CellTrace CFSE cell proliferation kit, Invitrogen) at 37°C for 10 min. To quench the staining, ice-old culture media were then added and incubated on ice for 5 min. Labeled cells were then pelleted and washed three times by fresh medium containing 10% FBS before seeding into six well plates at a density of 3.3×10^5cells/well. After 20 h, the medium was removed and incubated with fresh medium containing 5, 25 and 100 µM HBc 147-183 for one hour (FITC-labeled ARD peptide had been largely internalized in 10 minutes after the addition of ARD peptides to the medium of HepG2 cells). Forty-eight hours later, cells were harvested and analyzed by flow cytometry (FACSCanto, BD Bioscience).

A. baumannii ATCC17978 = format: cell-based, Acinetobacter baumannii; settings: text summary over the A. baumannii strains of Table 2
Text: (§3) Clinical isolates of Pseudomonas aeruginosa (NHRI-01, NHRI-02 and NHRI-04) were obtained through the program of Taiwan Surveillance of Antimicrobial Resistance (TSAR), National Health Research Institutes (NHRI), Taiwan. Acinetobacter baumannii (ATCC 17989, ATCC 17978 CR, ATCC19606, ATCC 19606 CR, TCGH 45530 and TCGH 46709) were obtained from Tzu-Chi Buddhist General Hospital (TCGH) in Taiwan, and clinical isolates (TCGH 45530 and TCGH 46709) were identified using the Vitek system (Biomerieux Vitek, Inc., Hazelwood, MO, USA). A. baumannii is defined as multidrug-resistant, when the organism is resistant to piperacillin, piperacillin-tazobactam, ampicillin/sulbactam, imipenem, ceftazidime, gentamicin, amikacin, tetracycline, chloramphenicol, ciprofloxacin, and cotrimoxazole. Susceptibility to colistin was determined using the broth-dilution method, in accordance with the guidelines of the Clinical and Laboratory Standards Institute (CLSI).
(§4) All peptides were purchased from Yao-Hong Biotechnology Inc. (Taipei, Taiwan). Vendors provided data of peptide characterizations, including HPLC and Mass (data not shown). Antimicrobial activity was determined as described with some modifications as detailed below. Bacteria were grown overnight in Mueller–Hinton broth (Difco) at 37°C, and during the mid-logarithmic phase, bacteria were diluted to 10^6 CFU (colony formation unit)/ml in phosphate buffer (10 mM sodium phosphate and 50 mM sodium chloride, pH 7.2). Peptides were serially diluted in the same buffer. Fifty microliter (µl) of bacteria was mixed with fifty µl of peptides at varying concentrations followed by incubation at 37°C for 3 hours without shaking. At the end of incubation, bacteria were placed on Mueller-Hinton broth agar plates, and allowed growth at 37°C overnight for measurement of minimal bactericidal concentration (MBC). […] All peptides were tested in triplicate.

[2] = test system: A. baumannii ATCC17978 CR; format: cell-based, Acinetobacter baumannii; settings: colistin-resistant A. baumannii of Table 2
Text: as §3, §4

Huh 7 cells = assay: Peptide uptake into mammalian cells; format: cell-based, human; settings: data not shown
P. aeruginosa = assay: SYTOX Green uptake (membrane permeabilization); format: cell-based, Pseudomonas aeruginosa; settings: 2 µM peptide; 10^7 CFU, 1 µM SYTOX Green, 37°C, ex 485 nm/em 520 nm
Description: as §2

K. pneumonia = assay: Killing kinetics; format: cell-based, Klebsiella pneumoniae; settings: 4 µM peptide, 37°C, triplicates
Description: as §1

With CC(C)[C@H](NC(=O)[C@@H](NC(=O)[C@@H](N)[C@@H](C)O)C(C)C)C(=O)N[C@@H](CCCNC(=N)N)C(=O)N[C@@H](CCCNC(=N)N)C(=O)N[C@@H](CCCNC(=N)N)C(=O)NCC(=O)N[C@@H](CCCNC(=N)N)C(=O)N[C@@H](CO)C(=O)N1CCC[C@H]1C(=O)N[C@@H](CCCNC(=N)N)C(=O)N[C@@H](CCCNC(=N)N)C(=O)N[C@@H](CCCNC(=N)N)C(=O)N[C@H](C(=O)N1CCC[C@H]1C(=O)N[C@@H](CO)C(=O)N1CCC[C@H]1C(=O)N[C@@H](CCCNC(=N)N)C(=O)N[C@@H](CCCNC(=N)N)C(=O)N[C@@H](CCCNC(=N)N)C(=O)N[C@@H](CCCNC(=N)N)C(=O)N[C@@H](CO)C(=O)N[C@@H](CCC(N)=O)C(=O)N[C@@H](CO)C(=O)N1CCC[C@H]1C(=O)N[C@@H](CCCNC(=N)N)C(=O)N[C@@H](CCCNC(=N)N)C(=O)N[C@@H](CCCNC(=N)N)C(=O)N[C@@H](CCCNC(=N)N)C(=O)N[C@@H](CO)C(=O)N[C@@H](CCC(N)=O)C(=O)N[C@@H](CO)C(=O)N[C@@H](CCCNC(=N)N)C(=O)N[C@@H](CCC(=O)O)C(=O)N[C@@H](CO)C(=O)N[C@@H](CCC(N)=O)C(=O)N[C@@H](CS)C(=O)O)[C@@H](C)O [HBc147-183] (H-TVVRRRGRSPRRRTPSPRRRRSQSPRRRRSQSRESQC-OH; N-terminus and C-terminus assumed) the “Binding to Lipid A” value [1] was “Lipid A can bind to HBc147-183 directly”, the “Time to complete killing” value (E. coli) was 180 min and the “Membrane permeabilization (SYTOX Green uptake)” value (S. aureus) was “not able to induce membrane permeabilization”. For the same compound, the “Effect on cell proliferation (CFSE intensity, day 3 vs mock)” value (HEK293 cells) was “no significant effect”, the “MBC against colistin-sensitive and colistin-resistant A. baumannii” value (A. baumannii ATCC17978) was 0.5 to 1 µM and the “MBC against all tested colistin-resistant A. baumannii” value [2] was 0.5 to 1 µM. The “Penetration through the cell membrane” value (Huh 7 cells) was “can penetrate through the cell membrane”, the “Membrane permeabilization (SYTOX Green uptake)” value (P. aeruginosa) was “significant degree of membrane permeabilization” and the “Time to complete killing” value (K. pneumonia) was 180 min.

Source: article PMC3681751, “Identification of a Novel Antimicrobial Peptide from Human Hepatitis B Virus Core Protein Arginine-Rich Domain (ARD)” (PLoS Pathogens, 2013)
